The values that follow come from US20250019377A1 (JACOBIO PHARMACEUTICALS CO., LTD, priority 2021, published 2025).

Assay [1] has as its target T1, K-Ras G12V (Homo sapiens, UniProt P01116, G12V). Nature of the assay: SOS1 catalyzed nucleotide exchange assay (GDP form K-Ras), K-Ras G12V. Particulars: read-out: K-Ras G12V GDP Biochemical Activity (IC50).
Another assay relates to SW620 cells (K-Ras G12V). Kind of assay: 2D cell growth inhibition assay, SW620. Type of assay: cell-based. Particulars: 6 days, absolute IC50.
In assay [2] the test system is p-ERK in AGS cells (K-Ras G12D). Kind of assay: Phospho-ERK1/2(THR202/TYR204) HTRF assay, AGS. The format is cell-based. Particulars: 2 hours incubation. A general note: Time-resolved FRET reads energy transfer from a long-lived donor to a nearby acceptor.
Assay [3] relates to AsPC-1 cells (K-Ras G12D). Nature of the assay: 2D cell growth inhibition assay, AsPC-1. Conditions: AsPC-1, K-Ras G12D, 6 days, absolute IC50. The format is cell-based.
Description: The cell growth inhibition activity of each of compounds was tested by performing cell growth inhibition assays on a variety of K-Ras mutant and K-Ras WT cell lines indicated in Table 25.
Each of cells in culture medium was plated in TC-treated 96-well plates at a density indicated in Table 25 and incubated in a cell incubator overnight. The next day, each of compounds was diluted in culture medium and added to the plates. After 6 days incubation in cell incubator, the cell viability was detected by CellTiter-Glo® Cell Viability Assay kit (Promega).
The next assay concerns AGS cells (K-Ras G12D). Nature of the assay: 2D cell growth inhibition assay, AGS. Type of assay: cell-based. Particulars: 6 days, absolute IC50.
For assay [4], the target named is T1, K-Ras G12V. Nature of the assay: biochemical.
In assay [5] the test system is p-ERK in SW620 cells (K-Ras G12V). Kind of assay: Phospho-ERK1/2(THR202/TYR204) HTRF assay, SW620. The format is cell-based. Particulars: 2 hours incubation.
In assay [6] the target is T2, K-Ras WT (Homo sapiens, UniProt P01116). Nature of the assay: SOS1 catalyzed nucleotide exchange assay (GDP form K-Ras), K-Ras WT. Particulars: read-out: K-Ras WT GDP Biochemical Activity (IC50).
T2 sequence (P01116 1-169 isoform P01116-2): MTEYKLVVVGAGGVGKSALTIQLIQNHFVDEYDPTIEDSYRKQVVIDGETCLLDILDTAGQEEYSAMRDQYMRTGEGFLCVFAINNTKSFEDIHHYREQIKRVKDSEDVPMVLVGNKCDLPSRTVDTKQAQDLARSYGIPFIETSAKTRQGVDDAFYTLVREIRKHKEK
In assay [7] the target is T2, K-Ras WT. Kind of assay: biochemical.
The next assay concerns the target K-Ras G13D (Homo sapiens, UniProt P01116, G13D). Kind of assay: biochemical.

T1 sequence (P01116 1-169 isoform P01116-2 G12V): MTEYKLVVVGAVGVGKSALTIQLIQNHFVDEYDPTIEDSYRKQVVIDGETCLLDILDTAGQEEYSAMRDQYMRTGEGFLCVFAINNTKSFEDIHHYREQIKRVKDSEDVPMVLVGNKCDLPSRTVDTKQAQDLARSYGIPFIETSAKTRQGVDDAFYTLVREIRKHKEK
K-Ras G13D, sequence (P01116 1-169 isoform P01116-2 G13D): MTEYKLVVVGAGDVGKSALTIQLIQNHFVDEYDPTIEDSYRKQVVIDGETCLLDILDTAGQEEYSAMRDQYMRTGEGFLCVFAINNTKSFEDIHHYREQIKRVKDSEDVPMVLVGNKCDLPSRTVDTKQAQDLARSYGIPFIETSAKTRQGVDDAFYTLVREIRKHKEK

With `C#Cc1c(F)ccc2cc(O)cc(-c3ncc4c(N5CC6COC(C6)C5)nc(OC[C@@]56CCCN5C[C@H](F)C6)nc4c3F)c12` (single isomer, unassigned) [Compound 84A, 4-(4-((1R,5S)-6-oxa-3-azabicyclo[3.2.1]octan-3-yl)-8-fluoro-2-(((2R,7aS)-2-fluorotetra-hydro-1H-pyrrolizin-7a(5H)-yl)methoxy)pyrido[4,3-d]pyrimidin-7-yl)-5-ethynyl-6-fluoronaphthalen-2-ol or 4-(4-((1S,5R)-6-oxa-3-azabicyclo[3.2.1]octan-3-yl)-8-fluoro-2-(((2R,7aS)-2-fluorotetra-hydro-1H-pyrrolizin-7a(5H)-yl)methoxy)pyrido[4,3-d]pyrimidin-7-yl)-5-ethynyl-6-fluoronaphthalen-2-ol], the IC50 – broadly, the concentration needed to halve the response being measured – worked out at 3.43 nM at K-Ras G12V [1]; 60.6 nM with SW620 cells (K-Ras G12V); 29.1 nM in assay [2]; 1100 nM in assay [3]; 203 nM in the assay with AGS cells (K-Ras G12D); 3720 nM against K-Ras G12V [4]. Moreover, the figures for the half-maximal inhibitory concentration (IC50) (in assay [5]; on K-Ras WT [6]; against K-Ras WT [7]) were 19.4 nM, 11.4 nM and 2990 nM, respectively.
As to `C#Cc1c(F)ccc2cc(O)cc(-c3ncc4c(N5CCCOCC5)nc(OCC56CCCN5CC(C)(F)C6)nc4c3F)c12` (stereo not shown) [Compound 10, 5-ethynyl-6-fluoro-4-(8-fluoro-2-((2-fluoro-2-methyltetrahydro-1H-pyrrolizin-7a(5H)-yl)methoxy)-4-(1,4-oxazepan-4-yl)pyrido[4,3-d]pyrimidin-7-yl)naphthalen-2-ol], the IC50 was 1.28 nM at K-Ras G12V [1]; 10.5 nM in the assay with SW620 cells (K-Ras G12V) (Homo sapiens, SW-620, 144 h); 6.71 nM in assay [2] (Homo sapiens, 2 h); 228 nM in [3] (Homo sapiens, ASPC1, 144 h); 26.2 nM with AGS cells (K-Ras G12D) (Homo sapiens, 144 h); 40.6 nM at K-Ras G12V [4]. Besides, the IC50 in assay [5] (Homo sapiens, SW-620, 2 h) was 10.6 nM; at K-Ras WT [6], 2.05 nM; against K-Ras WT [7], 62.1 nM.
In the case of `C#Cc1c(F)ccc2cc(O)cc(-c3ncc4c(N5CCOC(C)CC5)nc(OC[C@@]56CCCN5C[C@H](F)C6)nc4c3F)c12` (stereo partly drawn) [Compound 17, 5-ethynyl-6-fluoro-4-(8-fluoro-2-(((2R,7aS)-2-fluorotetrahydro-1H-pyrrolizin-7a(5H)-yl)methoxy)-4-(7-methyl-1,4-oxazepan-4-yl)pyrido[4,3-d]pyrimidin-7-yl)naphthalen-2-ol trifluoroacetic acid], the half-inhibitory concentration (IC50) is 26.8 nM at K-Ras G12V [1], 796 nM against K-Ras G12V [4] and 61.2 nM against K-Ras G13D.
As for `C#Cc1c(F)ccc2cc(O)cc(-c3ncc4c(N5CC(C)COCC5C)nc(OC[C@@]56CCCN5C[C@H](F)C6)nc4c3F)c12` (stereo partly drawn) [Compound 27, 4-(4-(3,6-dimethyl-1,4-oxazepan-4-yl)-8-fluoro-2-(((2R,7aS)-2-fluorotetrahydro-1H-pyrrolizin-7a(5H)-yl)methoxy)pyrido[4,3-d]pyrimidin-7-yl)-5-ethynyl-6-fluoronaphthalen-2-ol], the IC50 at K-Ras G12V [1] worked out at 8.13 nM; in the assay with SW620 cells (K-Ras G12V) (Homo sapiens, SW-620, 144 h), 90.7 nM; in assay [2] (Homo sapiens, 2 h) it was 65.1 nM; in assay [3] (Homo sapiens, ASPC1, 144 h), 904 nM; with AGS cells (K-Ras G12D) (Homo sapiens, 144 h) it was 216 nM; on K-Ras G12V [4], 720 nM. Also, the IC50 was 144 nM in assay [5] (Homo sapiens, SW-620, 2 h); 9.51 nM at K-Ras WT [6]; 235 nM on K-Ras WT [7].
In the case of `C#Cc1c(F)ccc2cc(O)cc(-c3ncc4c(N5CCOCC(C#N)C5)nc(OC[C@@]56CCCN5C[C@H](F)C6)nc4c3F)c12` (stereo partly shown) [Compound 88], the 50% inhibitory concentration (IC50) on K-Ras G12V [1] was 13.6 nM; on K-Ras G12V [4], 2850 nM; on K-Ras G13D it was greater than 100 nM; on K-Ras WT [6] it was 28.5 nM.
